Patent US20070049564A1 (Wyeth, priority 2005, published 2007)
≈ marks a conversion by molar mass, not a printed value. Like-named read-outs stand apart in the source and are kept apart here.

Key:
E. faecalis GC 2242 = experiment: MIC, broth microdilution; conditions: Enterococcus faecalis
S. aureus GC 2216 = experiment: MIC, broth microdilution; conditions: Staphylococcus aureus
E. coli GC 1073 = experiment: MIC, broth microdilution; conditions: Escherichia coli
E. coli GC 4560 = experiment: MIC, broth microdilution; conditions: Escherichia coli
Staph. = experiment: Range of MIC for Staph. strains, including MRSA; conditions: Staphylococcus aureus
Description: (§1) Antimicrobial susceptibility testing. The in vitro activities of the antibiotics are determined by the broth microdilution method as recommended by the National Committee for Clinical Laboratory Standards (NCCLS) (1). Mueller-Hinton II broth (MHBII)(BBL Cockeysville, Md.) is the medium employed in the testing procedures. Microtiter plates containing serial dilutions of each antimicrobial agent are inoculated with each organism to yield the appropriate density (10^5 CFU/ml) in a 100 μl final volume. The plates are incubated for 18-22 hours at 35° C. in ambient air.
(§2) Representative compounds were first incubated in mouse serum for an hour prior to the in vitro testing against a panel of selected gram-positive and gram-negative bacteria strains. All compounds were also pre-incubated in water for an hour prior to testing as control. Representative compounds of Formula I were incubated in human serum prior to MIC determination.

S. aureus GC 6466 = experiment: MIC, broth microdilution; conditions: Staphylococcus aureus
S. aureus GC 4536 = experiment: MIC, broth microdilution; conditions: Staphylococcus aureus
S. aureus GC 1079 = experiment: MIC, broth microdilution; conditions: Staphylococcus aureus
Description: as §1, §2

E. coli GC 2233 = experiment: MIC, broth microdilution; conditions: Escherichia coli
E. coli GC 2231 = experiment: MIC, broth microdilution; conditions: Escherichia coli
Description: as §1
(§3) Representative compounds were first incubated in mouse serum for an hour prior to the in vitro testing against a panel of selected gram-positive and gram-negative bacteria strains. All compounds were also pre-incubated in water for an hour prior to testing as control.

S. aureus GC 6469 = experiment: MIC, broth microdilution; conditions: Staphylococcus aureus
E. faecium GC 2243 = experiment: MIC, broth microdilution; conditions: Enterococcus faecium
E. coli GC 2270 = experiment: MIC, broth microdilution; conditions: Escherichia coli
c. albicans GC 3066 = experiment: MIC, broth microdilution
S. typhimurium GC 2172 = experiment: MIC, broth microdilution; conditions: Salmonella enterica, TYPHIMURIUM
E. faecium GC 4556 = experiment: MIC, broth microdilution; conditions: Enterococcus faecium
S. aureus GC 6467 = experiment: MIC, broth microdilution; conditions: Staphylococcus aureus
E. coli GC 2235 = experiment: MIC, broth microdilution; conditions: Escherichia coli
E. coli GC 6465 = experiment: MIC, broth microdilution; conditions: Escherichia coli
Description: as §1, §3

Compound `COC(=O)N(CC(=O)Nc1cc(N(C)C)c2c(c1O)C(=O)C1=C(O)[C@]3(O)C(=O)C(C(N)=O)=C(O)[C@@H](N(C)C)[C@@H]3C[C@@H]1C2)C(C)(C)C` [Example 60, methyl 2-{[(5aR,6aS,7S,10aS)-9-(aminocarbonyl)-4,7-bis(dimethylamino)-1,8,10a,11-tetrahydroxy-10,12-dioxo-5,5a,6,6a,7,10,10a,12-octahydrotetracen-2-yl]amino}-2-oxoethyl(tert-butyl)carbamate] has an MIC (E. faecalis GC 2242; GC2242, read-out: MINIMAL INHIBITORY CONCENTRATION MIC, Human Serum) of 4 µg/mL (≈ 6.21 µM), an MIC (E. faecalis GC 2242; GC2242, read-out: MINIMAL INHIBITORY CONCENTRATION MIC, Mouse Serum) of 8 µg/mL (≈ 12.4 µM) and an MIC (E. faecalis GC 2242; GC2242, read-out: MINIMAL INHIBITORY CONCENTRATION MIC, Water) of 8 µg/mL (≈ 12.4 µM). It also gave an MIC (S. aureus GC 2216; GC2216, read-out: MINIMAL INHIBITORY CONCENTRATION MIC, Human Serum) of 2 µg/mL (≈ 3.11 µM), an MIC (S. aureus GC 2216; GC2216, read-out: MINIMAL INHIBITORY CONCENTRATION MIC, Mouse Serum) of 2 µg/mL (≈ 3.11 µM) and an MIC (S. aureus GC 2216; GC2216, read-out: MINIMAL INHIBITORY CONCENTRATION MIC, Water) of 4 µg/mL (≈ 6.21 µM). It also gave an MIC (E. coli GC 1073; GC1073, read-out: MINIMAL INHIBITORY CONCENTRATION MIC, Human Serum) of over 64 µg/mL, an MIC (E. coli GC 1073; GC1073, read-out: MINIMAL INHIBITORY CONCENTRATION MIC, Mouse Serum) of over 64 µg/mL and an MIC (E. coli GC 1073; GC1073, read-out: MINIMAL INHIBITORY CONCENTRATION MIC, Water) of over 64 µg/mL. The MIC (E. coli GC 4560; GC4560, read-out: MINIMAL INHIBITORY CONCENTRATION MIC, Human Serum) was 1 µg/mL (≈ 1.55 µM), the MIC (E. coli GC 4560; GC4560, read-out: MINIMAL INHIBITORY CONCENTRATION MIC, Mouse Serum) was 1 µg/mL (≈ 1.55 µM) and the MIC (E. coli GC 4560; GC4560, read-out: MINIMAL INHIBITORY CONCENTRATION MIC, Water) was 2 µg/mL (≈ 3.11 µM). For the same compound, the MIC (Staph.; MRSA, read-out: Range of MIC, Staph (Mouse Serum)) was 2 to 8 µg/mL (≈ 3.11 to 12.4 µM), the MIC (Staph.; MRSA, read-out: Range of MIC, Staph (Water)) was 4 to 16 µg/mL (≈ 6.21 to 24.9 µM) and the MIC (Staph.; read-out: Minimum inhibitory concentration (MIC), Staph (Human Serum)) was 2 to 8 µg/mL (≈ 3.11 to 12.4 µM). It also gave an MIC (Staph.; read-out: Minimum inhibitory concentration (MIC), Staph (Water)) of 4 to 16 µg/mL (≈ 6.21 to 24.9 µM), an MIC (S. aureus GC 6466; GC6466, read-out: MINIMAL INHIBITORY CONCENTRATION MIC, Human Serum) of 4 µg/mL (≈ 6.21 µM) and an MIC (S. aureus GC 6466; GC6466, read-out: MINIMAL INHIBITORY CONCENTRATION MIC, Mouse Serum) of 4 µg/mL (≈ 6.21 µM). It also gave an MIC (S. aureus GC 6466; GC6466, read-out: MINIMAL INHIBITORY CONCENTRATION MIC, Water) of 8 µg/mL (≈ 12.4 µM), an MIC (S. aureus GC 4536; GC4536, read-out: MINIMAL INHIBITORY CONCENTRATION MIC, Human Serum) of 2 µg/mL (≈ 3.11 µM) and an MIC (S. aureus GC 4536; GC4536, read-out: MINIMAL INHIBITORY CONCENTRATION MIC, Mouse Serum) of 2 µg/mL (≈ 3.11 µM). It also gave an MIC (S. aureus GC 4536; GC4536, read-out: MINIMAL INHIBITORY CONCENTRATION MIC, Water) of 4 µg/mL (≈ 6.21 µM), an MIC (S. aureus GC 1079; GC1079, read-out: MINIMAL INHIBITORY CONCENTRATION MIC, Human Serum) of 2 µg/mL (≈ 3.11 µM) and an MIC (S. aureus GC 1079; GC1079, read-out: MINIMAL INHIBITORY CONCENTRATION MIC, Mouse Serum) of 2 µg/mL (≈ 3.11 µM). It also gave an MIC (S. aureus GC 1079; GC1079, read-out: MINIMAL INHIBITORY CONCENTRATION MIC, Water) of 4 µg/mL (≈ 6.21 µM), an MIC (E. coli GC 2233; GC2233, read-out: MINIMAL INHIBITORY CONCENTRATION MIC, Human Serum) of over 64 µg/mL and an MIC (E. coli GC 2233; GC2233, read-out: MINIMAL INHIBITORY CONCENTRATION MIC, Mouse Serum) of over 64 µg/mL. It also gave an MIC (E. coli GC 2233; GC2233, read-out: MINIMAL INHIBITORY CONCENTRATION MIC, Water) of over 64 µg/mL, an MIC (E. coli GC 2231; GC2231, read-out: MINIMAL INHIBITORY CONCENTRATION MIC, Human Serum) of over 64 µg/mL and an MIC (E. coli GC 2231; GC2231, read-out: MINIMAL INHIBITORY CONCENTRATION MIC, Mouse Serum) of over 64 µg/mL. It also gave an MIC (E. coli GC 2231; GC2231, read-out: MINIMAL INHIBITORY CONCENTRATION MIC, Water) of over 64 µg/mL, an MIC (S. aureus GC 6469; GC6469, read-out: MINIMAL INHIBITORY CONCENTRATION MIC, Human Serum) of 2 µg/mL (≈ 3.11 µM) and an MIC (S. aureus GC 6469; GC6469, read-out: MINIMAL INHIBITORY CONCENTRATION MIC, Mouse Serum) of 2 µg/mL (≈ 3.11 µM). The MIC (S. aureus GC 6469; GC6469, read-out: MINIMAL INHIBITORY CONCENTRATION MIC, Water) was 4 µg/mL (≈ 6.21 µM), the MIC (E. faecium GC 2243; GC2243, read-out: MINIMAL INHIBITORY CONCENTRATION MIC, Human Serum) was 2 µg/mL (≈ 3.11 µM) and the MIC (E. faecium GC 2243; GC2243, read-out: MINIMAL INHIBITORY CONCENTRATION MIC, Mouse Serum) was 2 µg/mL (≈ 3.11 µM). The MIC (E. faecium GC 2243; GC2243, read-out: MINIMAL INHIBITORY CONCENTRATION MIC, Water) was 4 µg/mL (≈ 6.21 µM), the MIC (E. coli GC 2270; GC2270, read-out: MINIMAL INHIBITORY CONCENTRATION MIC, Human Serum) was over 64 µg/mL and the MIC (E. coli GC 2270; GC2270, read-out: MINIMAL INHIBITORY CONCENTRATION MIC, Mouse Serum) was over 64 µg/mL. The MIC (E. coli GC 2270; GC2270, read-out: MINIMAL INHIBITORY CONCENTRATION MIC, Water) was over 64 µg/mL, the MIC (c. albicans GC 3066; Candida albicans, GC3066, read-out: MINIMAL INHIBITORY CONCENTRATION MIC) was over 64 µg/mL and the “MINIMAL INHIBITORY CONCENTRATION MIC” value (c. albicans GC 3066; Human Serum) was over 64 UG/ML. For the same compound, the “MINIMAL INHIBITORY CONCENTRATION MIC” value (c. albicans GC 3066; Mouse Serum) was over 64 UG/ML, the MIC (S. typhimurium GC 2172; read-out: MINIMAL INHIBITORY CONCENTRATION MIC, Human Serum) was over 64 µg/mL and the MIC (S. typhimurium GC 2172; read-out: MINIMAL INHIBITORY CONCENTRATION MIC, Mouse Serum) was over 64 µg/mL. For the same compound, the MIC (S. typhimurium GC 2172; read-out: MINIMAL INHIBITORY CONCENTRATION MIC, Water) was over 64 µg/mL, the MIC (E. faecium GC 4556; GC4556, read-out: MINIMAL INHIBITORY CONCENTRATION MIC, Human Serum) was 4 µg/mL (≈ 6.21 µM) and the MIC (E. faecium GC 4556; GC4556, read-out: MINIMAL INHIBITORY CONCENTRATION MIC, Mouse Serum) was 4 µg/mL (≈ 6.21 µM). The MIC (E. faecium GC 4556; GC4556, read-out: MINIMAL INHIBITORY CONCENTRATION MIC, Water) was 4 µg/mL (≈ 6.21 µM), the MIC (S. aureus GC 6467; GC6467, read-out: MINIMAL INHIBITORY CONCENTRATION MIC, Human Serum) was 4 µg/mL (≈ 6.21 µM) and the MIC (S. aureus GC 6467; GC6467, read-out: MINIMAL INHIBITORY CONCENTRATION MIC, Mouse Serum) was 4 µg/mL (≈ 6.21 µM). For the same compound, the MIC (S. aureus GC 6467; GC6467, read-out: MINIMAL INHIBITORY CONCENTRATION MIC, Water) was 8 µg/mL (≈ 12.4 µM), the MIC (E. coli GC 2235; GC2235, read-out: MINIMAL INHIBITORY CONCENTRATION MIC, Human Serum) was 64 µg/mL (≈ 99.4 µM) and the MIC (E. coli GC 2235; GC2235, read-out: MINIMAL INHIBITORY CONCENTRATION MIC, Mouse Serum) was 64 µg/mL (≈ 99.4 µM). The MIC (E. coli GC 2235; GC2235, read-out: MINIMAL INHIBITORY CONCENTRATION MIC, Water) was over 64 µg/mL, the MIC (E. coli GC 6465; GC6465, read-out: MINIMAL INHIBITORY CONCENTRATION MIC, Human Serum) was over 64 µg/mL and the MIC (E. coli GC 6465; GC6465, read-out: MINIMAL INHIBITORY CONCENTRATION MIC, Mouse Serum) was over 64 µg/mL. For the same compound, the MIC (E. coli GC 6465; GC6465, read-out: MINIMAL INHIBITORY CONCENTRATION MIC, Water) was over 64 µg/mL.
